Data published in patent US10065956B2, “Ethynyl derivatives” (Hoffmann-La Roche Inc., priority 2015, dated 2018).

Experiments:
[1] = tested on: mice; conditions: mice treated with MPTP; cited from earlier work
[2] = tested on: mice; conditions: reported by Addex 2010; cited from earlier work
[3] = tested on: mice; conditions: reported by Addex 2010; cited from earlier work; remark: listed apart in the source
[4] = tested on: rats; conditions: cited from earlier work
[5] = target: T1, human mGlu4 receptor (Homo sapiens, UniProt Q14833); assay: Ca2+ mobilization in vitro assay on recombinant human mGlu4 expressed in HEK293 cells (PAM, L-AP4 at EC20); type: cell-based; conditions: for Emax: HEK293, maximal response in % of the maximal stimulatory effect obtained with saturating concentrations of L-AP4, read-out: Eff. (%); for EC50: HEK293 cells expressing human mGlu4, L-AP4 added at EC20
T1 construct: expressed in transfected cells; host or cells: monoclonal HEK-293 cell line, stably transfected
T1 sequence (Q14833 33-912): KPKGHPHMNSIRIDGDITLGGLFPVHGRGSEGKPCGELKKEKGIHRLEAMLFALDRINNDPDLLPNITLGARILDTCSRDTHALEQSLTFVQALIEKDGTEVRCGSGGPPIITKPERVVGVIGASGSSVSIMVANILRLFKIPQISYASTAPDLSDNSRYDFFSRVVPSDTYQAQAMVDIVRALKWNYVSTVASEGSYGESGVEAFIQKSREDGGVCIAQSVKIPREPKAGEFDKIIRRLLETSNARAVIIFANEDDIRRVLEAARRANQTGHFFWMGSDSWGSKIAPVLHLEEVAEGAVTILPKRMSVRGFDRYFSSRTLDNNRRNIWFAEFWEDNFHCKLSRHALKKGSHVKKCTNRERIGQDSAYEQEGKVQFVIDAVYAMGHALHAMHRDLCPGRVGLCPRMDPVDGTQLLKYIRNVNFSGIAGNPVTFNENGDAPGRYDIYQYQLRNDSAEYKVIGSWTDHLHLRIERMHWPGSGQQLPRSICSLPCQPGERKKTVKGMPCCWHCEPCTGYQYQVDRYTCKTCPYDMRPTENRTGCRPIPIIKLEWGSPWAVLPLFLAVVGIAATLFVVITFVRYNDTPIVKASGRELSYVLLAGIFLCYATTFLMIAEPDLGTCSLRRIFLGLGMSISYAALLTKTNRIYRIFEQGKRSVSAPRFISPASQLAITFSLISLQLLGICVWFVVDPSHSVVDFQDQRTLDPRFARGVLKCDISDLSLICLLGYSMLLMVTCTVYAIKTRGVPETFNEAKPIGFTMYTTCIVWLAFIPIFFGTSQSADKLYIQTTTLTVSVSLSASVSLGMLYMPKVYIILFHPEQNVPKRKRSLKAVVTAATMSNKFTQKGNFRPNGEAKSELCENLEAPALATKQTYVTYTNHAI
Description: FIG. 1: Illustration of the experimental outline for mGlu4 PAM Ca2+ mobilization screening assay and the determination of EC50 and % Emax values.
Determination of EC50 Values Using a Ca2+ Mobilization In Vitro Assay on Recombinant Human mGlu4 Expressed in HEK293 Cells:
A monoclonal HEK-293 cell line stably transfected with a cDNA encoding for the human mGlu4 receptor was generated; for the work with mGlu4 Positive Allosteric Modulators (PAMs), a cell line with low receptor expression levels and low constitutive receptor activity was selected to allow the differentiation of agonistic versus PAM activity. Cells were cultured according to standard protocols (Freshney, 2000) in Dulbecco's Modified Eagle Medium with high glucose supplemented with 1 mM glutamine, 10% (vol/vol) heat-inactivated bovine calf serum, Penicillin/Streptomycin, 50 μg/ml hygromycin and 15 μg/ml blasticidin (all cell culture reagents and antibiotics from Invitrogen, Basel, Switzerland).
About 24 hrs before an experiment, 5×10^4 cells/well were seeded in poly-D-lysine coated, black/clear-bottomed 96-well plates. The cells were loaded with 2.5 μM Fluo-4AM in loading buffer (1×HBSS, 20 mM HEPES) for 1 hr at 37° C. and washed five times with loading buffer. The cells were transferred into a Functional Drug Screening System 7000 (Hamamatsu, Paris, France), and 11 half logarithmic serial dilutions of test compound at 37° C. were added and the cells were incubated for 10-30 min. with on-line recording of fluorescence. Following this pre-incubation step, the agonist (2S)-2-amino-4-phosphonobutanoic acid (L-AP4) was added to the cells at a concentration corresponding to EC20 with on-line recording of fluorescence; in order to account for day-to-day variations in the responsiveness of cells, the EC20 of L-AP4 was determined immediately ahead of each experiment by recording of a full dose-response curve of L-AP4. Responses were measured as peak increase in fluorescence minus basal (i.e. fluorescence without addition of L-AP4), normalized to the maximal stimulatory effect obtained with saturating concentrations of L-AP4. Graphs were plotted with the % maximal stimulatory using XLfit, a curve fitting program that iteratively plots the data using Levenburg Marquardt algorithm. The single site competition analysis equation used was y=A+((B−A)/(1+((x/C)D))), where y is the % maximal stimulatory effect, A is the minimum y, B is the maximum y, C is the EC50, x is the log 10 of the concentration of the competing compound and D is the slope of the curve (the Hill Coefficient). From these curves the EC50 (drug concentration at which 50% of the maximal receptor activation was achieved), the Hill coefficient as well as the maximal response in % of the maximal stimulatory effect obtained with saturating concentrations of L-AP4 were calculated (see FIG. 1). […] A depression of the signal observed after addition of the EC20 concentration of L-AP4 was indicative of an inhibitory activity of the test compound.

[6] = tested on: rodent; conditions: 6-OHDA rodent model of PD; cited from earlier work

**Q.** With `O=C(Nc1ccccc1)C12CC1/C(=N\O)c1ccccc1O2` (single isomer, unassigned; (-)) [(−)-PHCCC] as the compound, how does the nigrostriatal degeneration [1] read?
**A.** reduced nigrostriatal degeneration

**Q.** Which “activity in marble burying test” value [2] does the source give for `Cc1ccnc(Nc2nc(-c3cn[nH]c3)c(C)s2)n1` [ADX88178] here?
**A.** active

**Q.** What about the “activity in EPM” value [3] of the same compound?
**A.** active

**Q.** And the “profile in the rat EPM test” value ([4]; rat, after oral dosing)?
**A.** anxiolytic-like profile

**Q.** What about the “activity in EPM” value ([4]; rats, reported by Addex 2010) of the same compound?
**A.** active

**Q.** Which results are given for `CN1C(=O)N(c2c(F)cc(C#Cc3ccccc3)cc2Cl)C(=O)C[C@@]1(C)c1cnn(C)c1` [Example 44, (6S)-3-[2-Chloro-6-fluoro-4-(2-phenylethynyl)phenyl]-1,6-dimethyl-6-(1-methylpyrazol-4-yl)hexahydropyrimidine-2,4-dione]?
**A.** Emax [5]: 153%; EC50 [5]: 99 nM

**Q.** Which results are given for `CC[C@@]1(c2cn[nH]c2)CC(=O)N(c2c(F)cc(C#Cc3ccccc3)cc2F)C(=O)N1C` [Example 45, (6S)-3-[2,6-Difluoro-4-(2-phenylethynyl)phenyl]-6-ethyl-1-methyl-6-(1H-pyrazol-4-yl)hexahydropyrimidine-2,4-dione]?
**A.** Emax [5]: 126%; EC50 [5]: 39 nM

**Q.** Which Emax [5] does the source give for `CN1C(=O)N(c2c(F)cc(C#Cc3ccccc3)cc2F)C(=O)C[C@@]1(C)c1ccn(CCO)n1` [Example 46, (S)-3-(2,6-Difluoro-4-(phenylethynyl)phenyl)-6-(1-(2-hydroxyethyl)-1H-pyrazol-3-yl)-1,6-dimethyldihydropyrimidine-2,4(1H,3H)-dione] here?
**A.** 156%

**Q.** What about the EC50 [5] of the same compound?
**A.** 97 nM

**Q.** Which Emax [5] does the source give for `CN1C(=O)N(c2c(F)cc(C#Cc3cccc(F)c3)cc2F)C(=O)C[C@@]1(C)c1cnn(C)c1` [Example 47, (6S)-3-[2,6-Difluoro-4-[2-(3-fluorophenyl)ethynyl]phenyl]-1,6-dimethyl-6-(1-methylpyrazol-4-yl)hexahydropyrimidine-2,4-dione] here?
**A.** 136%

**Q.** What about the EC50 [5] of the same compound?
**A.** 71 nM

**Q.** With `CN1C(=O)N(c2c(F)cc(C#Cc3cc(F)ccc3F)cc2F)C(=O)C[C@@]1(C)c1cnn(C)c1` [Example 48, (6S)-3-[4-[2-(2,5-Difluorophenyl)ethynyl]-2,6-difluoro-phenyl]-1,6-dimethyl-6-(1-methylpyrazol-4-yl)hexahydropyrimidine-2,4-dione] as the compound, how does the Emax [5] read?
**A.** 140%

**Q.** What about the EC50 [5] of the same compound?
**A.** 79 nM

**Q.** With `CN1C(=O)N(c2c(F)cc(C#Cc3ccc(F)cc3)cc2F)C(=O)C[C@@]1(C)c1cnn(C)c1` [Example 49, (6S)-3-[2,6-Difluoro-4-[2-(4-fluorophenyl)ethynyl]phenyl]-1,6-dimethyl-6-(1-methylpyrazol-4-yl)hexahydropyrimidine-2,4-dione] as the compound, how does the Emax [5] read?
**A.** 142%

**Q.** And the EC50 [5]?
**A.** 55 nM

**Q.** Which Emax [5] does the source give for `CN1C(=O)N(c2c(F)cc(C#Cc3ccccc3F)cc2F)C(=O)C[C@@]1(C)c1cnn(C)c1` [Example 50, (6S)-3-[2,6-Difluoro-4-[2-(2-fluorophenyl)ethynyl]phenyl]-1,6-dimethyl-6-(1-methylpyrazol-4-yl)hexahydropyrimidine-2,4-dione] here?
**A.** 147%

**Q.** What about the EC50 [5] of the same compound?
**A.** 50 nM

**Q.** Which Emax [5] does the source give for `CC[C@@]1(c2cn[nH]c2)CC(=O)N(c2c(F)cc(C#Cc3cccnc3)cc2F)C(=O)N1C` [Example 51, (6S)-3-[2,6-Difluoro-4-[2-(3-pyridyl)ethynyl]phenyl]-6-ethyl-1-methyl-6-(1H-pyrazol-4-yl)hexahydropyrimidine-2,4-dione] here?
**A.** 136%

**Q.** What about the EC50 [5] of the same compound?
**A.** 45 nM

**Q.** For `CN1C(=O)N(c2c(F)cc(C#Cc3ccccc3)cc2F)C(=O)C[C@@]1(C)c1cnn(C2CC2)c1` [Example 52, (6S)-6-(1-Cyclopropylpyrazol-4-yl)-3-[2,6-difluoro-4-(2-phenylethynyl)phenyl]-1,6-dimethyl-hexahydropyrimidine-2,4-dione], which Emax [5] is on record?
**A.** 127%

**Q.** What about the EC50 [5] of the same compound?
**A.** 31 nM

**Q.** What does the source list for `CN1C(=O)N(c2c(F)cc(C#Cc3ccccc3F)cc2F)C(=O)C[C@@]1(C)c1cn[nH]c1` [Example 53, (6S)-3-[2,6-Difluoro-4-[2-(2-fluorophenyl)ethynyl]phenyl]-1,6-dimethyl-6-(1H-pyrazol-4-yl)hexahydropyrimidine-2,4-dione]?
**A.** Emax [5]: 145%; EC50 [5]: 17 nM

**Q.** Which Emax [5] does the source give for `CN1C(=O)N(c2c(F)cc(C#Cc3ccc(F)cc3)cc2F)C(=O)C[C@@]1(C)c1cn[nH]c1` [Example 54, (6S)-3-[2,6-Difluoro-4-[2-(4-fluorophenyl)ethynyl]phenyl]-1,6-dimethyl-6-(1H-pyrazol-4-yl)hexahydropyrimidine-2,4-dione] here?
**A.** 135%

**Q.** And the EC50 [5]?
**A.** 27 nM

**Q.** Which Emax [5] does the source give for `CN1C(=O)N(c2c(F)cc(C#Cc3cccc(F)c3F)cc2F)C(=O)C[C@@]1(C)c1cn[nH]c1` [Example 55, (6S)-3-[4-[2-(2,3-Difluorophenyl)ethynyl]-2,6-difluoro-phenyl]-1,6-dimethyl-6-(1H-pyrazol-4-yl)hexahydropyrimidine-2,4-dione] here?
**A.** 134%

**Q.** What about the EC50 [5] of the same compound?
**A.** 54 nM

**Q.** With `CN1C(=O)N(c2c(F)cc(C#Cc3ccc(F)cc3F)cc2F)C(=O)C[C@@]1(C)c1cn[nH]c1` [Example 56, (6S)-3-[4-[2-(2,4-Difluorophenyl)ethynyl]-2,6-difluoro-phenyl]-1,6-dimethyl-6-(1H-pyrazol-4-yl)hexahydropyrimidine-2,4-dione] as the compound, how does the Emax [5] read?
**A.** 143%

**Q.** What about the EC50 [5] of the same compound?
**A.** 44 nM

**Q.** Which results are given for `CN1C(=O)N(c2c(F)cc(C#Cc3cccc(F)c3F)cc2F)C(=O)C[C@@]1(C)c1cnn(C)c1` [Example 57, (6S)-3-[4-[2-(2,3-Difluorophenyl)ethynyl]-2,6-difluoro-phenyl]-1,6-dimethyl-6-(1-methylpyrazol-4-yl)hexahydropyrimidine-2,4-dione]?
**A.** Emax [5]: 143%; EC50 [5]: 97 nM

**Q.** Which results are given for `CN1C(=O)N(c2c(F)cc(C#Cc3ccc(F)cc3F)cc2F)C(=O)C[C@@]1(C)c1cnn(C)c1` [Example 58, (6S)-3-[4-[2-(2,4-Difluorophenyl)ethynyl]-2,6-difluoro-phenyl]-1,6-dimethyl-6-(1-methylpyrazol-4-yl)hexahydropyrimidine-2,4-dione]?
**A.** Emax [5]: 139%; EC50 [5]: 80 nM

**Q.** For `CN1C(=O)N(c2c(F)cc(C#Cc3cccc(F)c3)cc2F)C(=O)C[C@@]1(C)c1cn[nH]c1` [Example 59, (6S)-3-[2,6-Difluoro-4-[2-(3-fluorophenyl)ethynyl]phenyl]-1,6-dimethyl-6-(1H-pyrazol-4-yl)hexahydropyrimidine-2,4-dione], which Emax [5] is on record?
**A.** 160%

**Q.** And the EC50 [5]?
**A.** 44 nM

**Q.** For `CN1C(=O)N(c2c(F)cc(C#Cc3ccccc3)cc2F)C(=O)C[C@@]1(C)c1cnn(CC(C)(C)O)c1` [Example 60, (6S)-3-[2,6-Difluoro-4-(2-phenylethynyl)phenyl]-6-[1-(2-hydroxy-2-methyl-propyl)pyrazol-4-yl]-1,6-dimethyl-hexahydropyrimidine-2,4-dione], which Emax [5] is on record?
**A.** 142%

**Q.** And the EC50 [5]?
**A.** 47 nM

**Q.** Which Emax [5] does the source give for `CN1C(=O)N(c2c(F)cc(C#Cc3ccccc3)cc2F)C(=O)C[C@@]1(C)c1cnn(CC2COC2)c1` [Example 61, (6S)-3-[2,6-Difluoro-4-(2-phenylethynyl)phenyl]-1,6-dimethyl-6-[1-(oxetan-3-ylmethyl)pyrazol-4-yl]hexahydropyrimidine-2,4-dione] here?
**A.** 110%

**Q.** And the EC50 [5]?
**A.** 63 nM

**Q.** With `CN1C(=O)N(c2c(F)cc(C#Cc3ccccc3)cc2F)C(=O)C[C@@]1(C)c1ccn(CC(C)(C)O)n1` [Example 63, (6S)-3-[2,6-Difluoro-4-(2-phenylethynyl)phenyl]-6-[1-(2-hydroxy-2-methyl-propyl)pyrazol-3-yl]-1,6-dimethyl-hexahydropyrimidine-2,4-dione] as the compound, how does the Emax [5] read?
**A.** 99%

**Q.** And the EC50 [5]?
**A.** 71 nM

**Q.** Which “neuroprotection in 6-OHDA model” value [6] does the source give for `N[C@@H](CCP(=O)(O)O)C(=O)O` [L-AP4, (2S)-2-amino-4-phosphonobutanoic acid] here?
**A.** neuroprotective effects
